Reference: patent US8470769B2, “Method of treatment of bacterial infection by administration of poly-lysine” (priority 2004, dated 2013)

What was measured:
[1] = test system: Candida albicans strain 3179; assay: Candida albicans survival assay (viable counts); assay type: cell-based; conditions: for Survival of Candida albicans, antifungal activity compared with poly-L-lysine: 100 μg/ml, 1 mg/ml and 10 mg/ml, 2 hours at 37° C. (FIG. 19)
Description: (§1) Trichophyton interdigitale (NCPF 117) and Trichophyton rubrum (NCPF 335) strains were obtained from the National Collection of Pathogenic Fungi, Bristol and maintained in culture by transfer at approximately monthly intervals on slopes of Sabuoraud's agar and Potato Dextrose Agar at 30° C. Candida albicans strain 3179 (obtained from the National Collection of Type Cultures [NCTC], Colindale) was maintained in Oxoid Mueller Hinton Broth at 37° C. Streptococcus pyogenes strain 8198, Staphylococcus aureus strain 10642 (methicillin-resistant), and E. coli 0157 strain 12900 were obtained from the NCTC, Colindale and maintained in Oxoid Mueller Hinton Broth at 37° C.
To determine the sensitivity of fungal strains to each of the test peptides, their impact on Candida survival was assessed as follows. C. albicans cultures were grown for 18-24 h then stored at 4° C. prior to use. Fresh cultures grown overnight were centrifuged at 2000×g for 10 min and washed with fresh Mueller Hinton Broth, adjusting the number of viable cells to between 5×10^6 and 1×10^7/ml. Assay buffer was prepared by adding 100 μl of NGB medium to 6.9 ml of 10 mM sodium phosphate buffer, pH 7.7. 35 μl of assay buffer with or without a range of peptide concentrations was added to a sterile polypropylene screw-capped vial and 15 μl of the Candida albicans inoculum described above was added. The vials were incubated at 37° C. in a water bath for 2 h, and the number of Candida spp. surviving was determined by serial dilution in sterile phosphate buffered saline (PBS) and plating out onto 9 cm Petri dishes containing Oxoid Sabouraud's Agar (20 ml). Counts were made after incubation of these plates at 37° C. for 18-24 h.

[2] = test system: Trichophyton interdigitale (NCPF 117); assay: Fungal growth sensitivity assay (absorbance at 540 nm); assay type: cell-based
Description: as §1
(§2) To determine the sensitivity of fungal strains to each of the test peptides, their impact on fungal growth was assessed as follows. Suspensions of T. interdigitale and T. rubrum conidia and hyphal fragments were prepared by adding 10 ml of fresh Nutrient Glucose Broth (NGB) (Oxoid Nutrient broth containing 2% w/v glucose) to a slope culture and agitating with a spatula. The resulting conidial/hyphal fragment suspension was filtered through 2 layers of sterile surgical gauze to remove large hyphal mats and pieces of agar. 20 μl of this suspension (absorbance at 540 nm around 0.1, corresponding to approx 10^6 propagules/ml) was inoculated into each well of sterile, 96 well microtitre plates to which a total volume 80 μl of nutrient medium (NGB) and the appropriate amount of peptide solution had previously been added. Control wells were those in which the final assay volume of 100 μl was made up with NGB medium alone, plus solvent (if applicable and at the same concentration as the peptide samples if so). Fungal growth within the plates was monitored by absorbance at 540 nm in a Microtek plate reader after 24 h, 4 day and 7 day incubations at 30° C.

[3] = test system: Trichophyton rubrum (NCPF 335); assay: as above; assay type: cell-based
Description: as §1
as §2, with “Fungal growth within the plates was monitored by absorbance at 540 nm in a Microtek plate reader after 24 h, 4 day and 7 day incubations at 30° C.” left out

[4] = test system: E. coli 0157 strain 12900; assay: Bacterial survival assay; assay type: cell-based, Escherichia coli; conditions: range of concentrations; 3 h of exposure; dose dependent (FIG. 7)
Description: (§3) Streptococcus pyogenes strain 8198, Staphylococcus aureus strain 10642 (methicillin-resistant), and E. coli 0157 strain 12900 (all obtained from the NCTC, Colindale) were grown for 18-24 h then stored at 4° C. prior to use. Fresh cultures grown overnight were centrifuged at 2000×g for 10 min and washed with fresh Mueller Hinton Broth. Sensitivity to each of the four peptides was assayed as per C. albicans described above. For E. coli and S. aureus, the starting number of cells for the peptide sensitivity assay was 10^8/ml and the medium used for enumeration was Nutrient Agar (Oxoid). Str. pyogenes grew less well than the other strains on Mueller Hinton agar and so the starting number of cells for these assays was lower than that for the other strains, at 10^6/ml. Str. pyogenes survival was determined using Oxoid Tryptose Soya Agar in place of Nutrient Agar.
(§4) Three clinically relevant bacterial pathogens, E. coli 0157, methicillin-resistant Staphylococcus aureus (MRSA) and Streptococcus pyogenes, were exposed, as described previously in the materials and methods section, to a range of concentrations of peptide 4. After a period of 3 h, samples of each bacterial culture were transferred to appropriate solid phase growth media plates and the numbers of viable colonies in control (growth medium only) and treated (growth medium containing peptide 4) samples assessed after 18-24 h.

[5] = test system: Streptococcus pyogenes strain 8198; assay: Bacterial survival assay; assay type: cell-based; conditions: range of concentrations; 3 h of exposure; dose dependent (FIG. 7)
Description: as §3, §4

[6] = test system: Staphylococcus aureus strain 10642 (methicillin-resistant); assay: Bacterial survival assay; assay type: cell-based; conditions: range of concentrations; 3 h of exposure; dose dependent (FIG. 7)
Description: as §3, §4

[7] = test system: Candida albicans strain 3179; assay: Candida albicans growth by optical density (absorbance at 540 nm); assay type: cell-based; conditions: 50 or 100 and 300 or 500 μg/ml peptide; 24 h and 48 h; time and dose-dependent (FIG. 4)
Description: as §1
The yeast Candida albicans was cultured, as described previously in the materials and methods section, in growth medium alone (control cultures) or in growth medium containing 50 μg/ml or 100 μg/ml and 300 μg/ml or 500 μg/ml of peptide 1, 2, 3 or 4. Growth of C. albicans was assessed by measuring optical density (absorbance at 540 nm) after 24 h (FIG. 4a) and 48 h (FIG. 4b) in culture. […] In a separate experiment, C. albicans survival was assessed after 18-24 h in cultures grown in medium alone (controls) or those including a range of concentrations of peptide 4 spanning 1 μg/ml to 1000 μg/ml (FIG. 6).

[8] = no acetic acid, 96 hours at 30° C. (FIG. 13)
[9] = 100 μg/ml, no acetic acid, 96 hours at 30° C. (FIG. 15)
[10] = 3 concentrations, no acetic acid, 96 hours at 30° C. (FIG. 14)
[11] = 3 concentrations of Peptide 4, no acetic acid, 96 hours at 30° C. (FIG. 9)

Molecule: Poly-D-lysine-HBr 4,000-15,000Da (27-100aa) [pKd27-100]
- Survival of Candida albicans, antifungal activity compared with poly-L-lysine [1]: very similar antifungal activity to the poly-L-lysine

Molecule: Poly-L-lysine-HCl 15,000-30,000Da (100-200aa) [pK100-200]
- Growth of T. interdigitale ([2]; between 1 mg/ml and 50 μg/ml, no acetic acid, 96 hours at 30° C. (FIG. 12)): inhibited growth at all concentrations tested
- Growth of T. rubrum [3, 8]: inhibited the growth

Molecule: Poly-L-arginine-HCl 5,000-15,000 (28-86aa) [pR28-86]
- Growth of T. interdigitale (OD) [2, 9]: loss of activity
- Concentration down to which active against T. interdigitale [2, 10]: 0.55 mg/mL
- Growth of T. rubrum (OD) [3, 9]: loss of activity
- Growth of T. rubrum ([3]; 1 mg/ml, no acetic acid, 96 hours at 30° C. (FIG. 13)): totally inhibiting growth
- Concentration down to which active against T. rubrum [3, 10]: 0.55 mg/mL
- Inhibitory impact against T. rubrum compared with poly-L-Lysine ([3]; equivalent doses, no acetic acid, 96 hours at 30° C. (FIG. 13)): more active
- Growth of T. rubrum [3, 8]: inhibited the growth
- Survival of Candida albicans, antifungal activity compared with poly-L-lysine [1]: increased antifungal activity

Molecule: Peptide 4: peptide of FIG. 1 (SEQ ID NO: 10); highly cationic peptide comprising lysine and arginine residues (KRKRKRKCRKRKRRCRKRKCKRKRKRKRKCRKRKRKCCRRKK)
- Growth of T. interdigitale (optical density, absorbance at 540 nm) ([2]; 50 μg/ml peptide, day 4 and 7, 0.5% acetic acid as solvent, compared to un-treated control (FIG. 2)): significantly inhibited
- Growth of T. interdigitale (OD) [2, 11]: inhibitory effect
- Growth of T. interdigitale (OD) ([2]; 7 days, no acetic acid solvent (FIG. 10)): significantly inhibit fungal growth
- Effect of salt concentrations on antifungal activity towards T. interdigitale ([2]; Peptide 4 1.2 mg/ml, NaCl 100 mM to 500 mM, no acetic acid, 96 h at 30° C. (FIG. 17)): not affected
- Peptide concentration at which growth of T. interdigitale was inhibited ([2]; no acetic acid, 96 hours at 30° C. (FIG. 9)): 0.55 mg/mL
- Growth of T. rubrum (optical density, absorbance at 540 nm) ([3]; 50 μg/ml peptide, day 4 and 7, 0.5% acetic acid as solvent, compared to un-treated control (FIG. 3)): significantly inhibited
- Growth of T. rubrum (OD) ([3]; 1 mg/ml peptide 4 alone, 3 days in culture (FIG. 8)): inhibited T. rubrum growth
- Growth of T. rubrum (OD) [3, 11]: inhibitory effect
- Survival of E. coli 0157 (viable colonies) [4]: significantly inhibited survival
- Survival of C. albicans (viability counts) ([1]; 1 μg/ml to 1000 μg/ml, after 24 h in culture (FIG. 6)): decreased in a dose-dependent manner
- Survival of C. albicans at high salt concentrations ([1]; range of Peptide 4 concentrations, two concentrations of NaCl, 2 h incubation at 37° C. (FIG. 18)): Significant killing activity
- Effect of salts on fungicidal activity against C. albicans ([1]; two concentrations of NaCl, 2 h incubation at 37° C. (FIG. 18)): not inhibited by salts
- Survival of Streptococcus pyogenes (viable colonies) [5]: significantly inhibited survival
- Survival of methicillin-resistant Staphylococcus aureus (MRSA) (viable colonies) [6]: significantly inhibited survival
- Growth of C. albicans (optical density, absorbance at 540 nm) [7]: significantly inhibited C. albicans growth

Molecule: CC(=O)O [acetic acid]
- Growth of T. interdigitale ([2]; 0.5% acetic acid, 96 hours at 30° C. (FIG. 11)): significant effect
- Growth of T. rubrum (OD) ([3]; 0.01% acetic acid alone, 3 days in culture (FIG. 8)): no significant effect

Molecule: L-Arginine trimer [RRR]
- Activity against T. rubrum compared among the trimers ([3]; 2 mg/ml of each trimer, 96 hours at 30° C. (FIG. 16)): most active peptide
- Growth of T. rubrum (OD, percentage of the growth in the untreated culture) ([3]; 2 mg/ml of trimer, 96 hours at 30° C. (FIG. 16)): significant reduction in growth
